In US9758516B2, “Crystalline form of an anxiolytic compound” (Bionomics Limited, priority 2013, dated 2017):

Experiments:
[1] = reported, see U.S. Pat. No. 8,293,737; cited from earlier work
[2] = Stability study of Form B stored at about 40° C. and about 75% r.h. (HPLC, XRPD, IR); assay type: physicochemical; set-up: key to XRPD / IR: The term “complies” refers to substantially the same XRPD pattern and/or IR spectrum as the sample at the incept of the storage (time point=initial); conditions: for Concentration of compound 1 by HPLC Assay (anhydrous basis) / IR / XRPD: about 40° C., about 75% r.h.
Experimental: Standard solutions of the SP196-FD-P1 free drug of compound 1 and the L-malate salt of compound 1 (SP196-MLA-P4) were prepared in the concentration range of 0.2-0.05 mg/mL for the construction of a calibration curve.
Another sample of Form B was stored at about 40° C. and about 75% r.h. for a period of time (e.g., 6 months). The concentration of compound 1 in the sample was assayed using HPLC, XRPD, and IR at different time points. The term “complies” refers to substantially the same XRPD pattern and/or IR spectrum as the sample at the incept of the storage (time point=initial).

[3] = Competitive slurry experiment, Form B versus anhydrous form; assay type: physicochemical
Description: In some embodiments, it would be desirable to provide a crystalline polymorph of compound 1 that, as compared to the amorphous compound 1, imparts improved physical characteristics such as stability and/or ease of formulation. Accordingly, provided herein is a crystalline form (denoted Form B) of compound 1. Form B is a hemihydrate of compound 1. […] In some embodiments, Form B has a water content of about 2.0 wt %. […] In a competitive slurry experiment there was a tendency for the anhydrous form to convert to Form B.

[4] = Dynamic vapor sorption (DVS) measurement, hygroscopicity; assay type: physicochemical
Experimental: Projekt Messtechnik Sorptions Prüfsystem SPS 11-100n or Surface Measurement Systems DVS-1. The sample was placed on an aluminum or platinum holder on top of a microbalance and allowed to equilibrate for 2 h at 50% r.h. before starting one of two pre-defined humidity programs:
(2) 50→0% r.h. (5%/h); 5 h at 0% r.h.;
(3) 0→95% r.h. (5%/h); 5 h at 95% r.h.; and
The hygroscopicity was classified based on the mass gain at 85% r.h. relative to the initial mass as follows: deliquescent (sufficient water adsorbed to form a liquid), very hygroscopic (mass increase of ≧15%), hygroscopic (mass increase <15% and ≧2%), slightly hygroscopic (mass increase <2% and ≧0.2%), or non-hygroscopic (mass increase <0.2%).
During the DVS measurement (FIG. 4), the relative humidity was first lowered from 50% r.h. to 0% r.h., then raised from 0% r.h. to 95% r.h. and lowered back again to 50% r.h. […] Upon increasing the relative humidity to 95% r.h., a gradual mass gain of about 0.3 wt % (relative to the mass at 0% r.h.) was observed. […] The mass increase of 0.1 wt % at 85% r.h. (relative to the starting mass at 50% r.h.) classifies the sample as non-hygroscopic.

[5] = Stability study of Form B stored at about 25° C. and about 60% r.h. (HPLC, XRPD, IR); assay type: physicochemical; set-up: key to XRPD / IR: The term “complies” refers to substantially the same XRPD pattern and/or IR spectrum as the sample at the incept of the storage (time point=initial); conditions: for Concentration of compound 1 by HPLC Assay (anhydrous basis) / IR / XRPD: about 25° C., about 60% r.h.
Experimental: A sample of Form B was stored at about 25° C. and about 60% r.h. for a period of time (e.g., 24 months). The concentration of compound 1 in the sample was assayed using HPLC, XRPD, and IR at different time points. The term “complies” refers to substantially the same XRPD pattern and/or IR spectrum as the sample at the incept of the storage (time point=initial).

[6] = Drying of Form B under vacuum at 40° C.; assay type: physicochemical
Experimental: A solid sample of Form B was dried in an attempt to dehydrate it. The sample was stored under vacuum (<5 mbar (e.g., about 4 mbar)) at 40° C. overnight or for 1 day.

[7] = vacuum (<5 mbar) at 40° C. overnight or for 1 day

CCn1cc(C(=O)N2CCOCC2)c(=O)c2cc(NC3Cc4ccccc4C3)cnc21 [Compound 1, 1-ethyl-6-(indan-2-ylamino)-3-(morpholine-4-carbonyl)-1,8-naphthyridin-4-one]
sedative side effects [1]: without sedative side effects

CCn1cc(C(=O)N2CCOCC2)c(=O)c2cc(NC3Cc4ccccc4C3)cnc21 [Form B, 1-ethyl-6-(indan-2-ylamino)-3-(morpholine-4-carbonyl)-1,8-naphthyridin-4-one]
stable upon storage, duration ([2]; about 40° C. and about 75% r.h.): at least 6 months | Concentration of compound 1 by HPLC Assay (anhydrous basis) ([2]; 1 month): 99.6% w/w | Concentration of compound 1 by HPLC Assay (anhydrous basis) ([2]; 2 months): 99.3% w/w | Concentration of compound 1 by HPLC Assay (anhydrous basis) ([2]; 3 months): 99.3% w/w | IR ([2]; 3 months): complies | XRPD ([2]; 3 months): complies | Concentration of compound 1 by HPLC Assay (anhydrous basis) ([2]; 6 months): 99.4% w/w | IR ([2]; 6 months): complies | XRPD ([2]; 6 months): complies | Concentration of compound 1 by HPLC Assay (anhydrous basis) ([2]; time point Initial): 99.5% w/w | relative stability of forms [3]: more stable than an anhydrous form of compound 1 | hygroscopicity (in words) [4]: substantially non-hygroscopic | FT-Raman spectrum after the DVS measurement compared to before ([4]; after DVS cycle 50→0→95→50% r.h.): unchanged | mass increase (DVS) ([4]; at 85% r.h., relative to the starting mass at 50% r.h.): 0.1 wt % | hygroscopicity classification ([4]; based on the mass gain at 85% r.h. relative to the initial mass): non-hygroscopic (non-hygroscopic (mass increase <0.2%)) | mass gain (DVS) ([4]; upon increasing the relative humidity to 95% r.h., relative to the mass at 0% r.h.): about 0.3 wt % | mass loss (DVS) ([4]; upon lowering the relative humidity from 50% r.h. to 0% r.h.): about 0.1 wt % | final mass (DVS) ([4]; upon lowering the relative humidity from 95% r.h. to 50% r.h.): equal to the starting mass | stable upon storage, duration ([5]; about 25° C. and about 60% r.h.): at least 24 months | Concentration of compound 1 by HPLC Assay (anhydrous basis) ([5]; 3 months): 99.4% w/w | IR ([5]; 3 months): complies | XRPD ([5]; 3 months): complies | Concentration of compound 1 by HPLC Assay (anhydrous basis) ([5]; 6 months): 99.6% w/w | IR ([5]; 6 months): complies | XRPD ([5]; 6 months): complies | Concentration of compound 1 by HPLC Assay (anhydrous basis) ([5]; 12 months): 99.3% w/w | IR ([5]; 12 months): complies | XRPD ([5]; 12 months): complies | Concentration of compound 1 by HPLC Assay (anhydrous basis) ([5]; 18 months): 99.4% w/w | IR ([5]; 18 months): complies | XRPD ([5]; 18 months): complies | Concentration of compound 1 by HPLC Assay (anhydrous basis) ([5]; 24 months): 99.2% w/w | IR ([5]; 24 months): complies | XRPD ([5]; 24 months): complies | Concentration of compound 1 by HPLC Assay (anhydrous basis) ([5]; time point Initial): 99.5% w/w | stability upon drying [6]: stable upon drying | loss of H2O of the dried sample (TG-FTIR) ([6]; dried sample, from 50° C. to 200° C.): about 1.9 wt % | XRPD pattern of the dried sample compared to before drying [6, 7]: unchanged | dehydration on drying [6, 7]: no dehydration and loss of solvent occurred
